The source of these data is PubChem BioAssay AID330 (DTP/NCI, 2004).

Structures are written as SMILES. “And” between values parts separate entries of the source, which are not always exact repeats. Equal values may be shown once. Inconclusive results and toxic doses are left out.

This experiment concerns P388 leukemia ip, CD2F1 mice, survival T/C. Kind of experiment: NCI In Vivo Anticancer Drug Screen. Data for tumor model P388 Leukemia (intraperitoneal) in CD2F1 (CDF1) mice. The settings on record: endpoint: median survival time, higher = longer survival. The method in brief:
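Mice carrying the transplanted tumor received test compound or vehicle. Survival was recorded in each group, and the value is the treated-group measurement divided by that of the vehicle-treated control group.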

[1] abbreviates: dose: 100.0 mg/kg/injection, schedule: Q04DX003 (ip), vehicle: saline with Tween-80.
Setting [2] is: dose: 200.0 mg/kg/injection, schedule: Q04DX003 (ip), vehicle: saline with Tween-80.
Setting [3] is: dose: 400.0 mg/kg/injection, schedule: Q04DX003 (ip), vehicle: saline with Tween-80.
The mark [4] stands for this setting: dose: 60.0 mg/kg/injection, schedule: Q01DX005 (ip), vehicle: saline with Tween-80.
Where [5] appears, read: dose: 120.0 mg/kg/injection, schedule: Q01DX005 (ip), vehicle: saline with Tween-80.
[6] abbreviates: dose: 240.0 mg/kg/injection, schedule: Q01DX005 (ip), vehicle: saline with Tween-80.
Where [7] appears, read: dose: 50.0 mg/kg/injection, schedule: Q01DX009 (ip), vehicle: saline with Tween-80.
Where [8] appears, read: dose: 100.0 mg/kg/injection, schedule: Q01DX009 (ip), vehicle: saline with Tween-80.
[9] abbreviates: dose: 50.0 mg/kg/injection, schedule: Q01DX005 (ip), vehicle: saline with Tween-80.
The mark [10] stands for this setting: dose: 100.0 mg/kg/injection, schedule: Q01DX005 (ip), vehicle: saline with Tween-80.
The mark [11] stands for this setting: dose: 200.0 mg/kg/injection, schedule: Q01DX005 (ip), vehicle: saline with Tween-80.
The mark [12] stands for this setting: dose: 50.0 mg/kg/injection, schedule: Q01DX005 (ip), vehicle: Klucel (hydroxypropylcellulose) (HPC).
Setting [13] is: dose: 100.0 mg/kg/injection, schedule: Q01DX005 (ip), vehicle: Klucel (hydroxypropylcellulose) (HPC).
Where [14] appears, read: dose: 200.0 mg/kg/injection, schedule: Q01DX005 (ip), vehicle: Klucel (hydroxypropylcellulose) (HPC).
Where [15] appears, read: dose: 50.0 mg/kg/injection, schedule: Q01DX009 (ip), vehicle: saline.
The mark [16] stands for this setting: dose: 25.0 mg/kg/injection, schedule: Q01DX009 (ip), vehicle: saline.
Where [17] appears, read: dose: 25.0 mg/kg/injection, schedule: Q01DX009 (ip), vehicle: other.

Consider `Cc1cccc(Cl)c1NC(=O)CS`, for which the T/C is, setting by setting: under setting [1], 100 % of control; under setting [2], 104 % of control; under setting [3], 100 % of control.
Turning to `CC1OC(Nc2ncnc3nc[nH]c23)C(O)C(O)C1NC(=O)CNC(=O)CCCCCCCCC/C=C\C(C)(C)C` (stereo not given), the T/C (dose: 0.25 mg/kg/injection, schedule: Q01DX009 (ip), vehicle: distilled water + Tween-80) was 113 % of control; the T/C (dose: 0.5 mg/kg/injection, schedule: Q01DX009 (ip), vehicle: distilled water + Tween-80) is 113 % of control and 123 % of control; the T/C (dose: 4.0 mg/kg/injection, schedule: Q01DX009 (ip), vehicle: distilled water + Tween-80) is 100 % of control.
As for `CCCCC#CC(=O)OCC`, the T/C under setting [4] was 101 % of control, the T/C under setting [5] was 106 % of control and the T/C under setting [6] is 113 % of control.
As to `CN(C)N=Nc1cn[nH]c1C(N)=O`, the T/C (dose: 50.0 mg/kg/injection, schedule: Q04DX003 (ip), vehicle: Klucel (hydroxypropylcellulose) (HPC)) was 109 % of control; the T/C (dose: 200.0 mg/kg/injection, schedule: Q04DX003 (ip), vehicle: Klucel (hydroxypropylcellulose) (HPC)) is 161 % of control and 163 % of control.
Turning to `Cc1ccc(NC(=O)Oc2cc(C)c(Cl)c(C)c2Cl)c([N+](=O)[O-])c1`, the T/C under setting [7] is 114 % of control and the T/C under setting [8] was 107 % of control.
As to `Nc1[nH]c(=S)ncc1-c1ccccc1Cl`, the T/C by setting is: under setting [4], 98 % of control; under setting [5], 95 % of control; under setting [6], 93 % of control.
Take `O=CNNC(=O)c1cnccn1`: the T/C (dose: 89.0 mg/kg/injection, schedule: Q01DX009 (ip), vehicle: water) was 109 % of control; the T/C (dose: 133.0 mg/kg/injection, schedule: Q01DX009 (ip), vehicle: water) is 100 % of control; the T/C (dose: 200.0 mg/kg/injection, schedule: Q01DX009 (ip), vehicle: water) is 118 % of control.
Regarding `Cc1ccc(N(CC(=O)O)S(=O)(=O)c2ccccc2)c(C)c1Cc1cccc(Br)c1`, the T/C is 101 % of control under setting [9], 104 % of control under setting [10] and 101 % of control under setting [11].
Take `COc1cc2c(cc1OCc1ccccc1)C(Cc1cc(Br)sc1Br)=NCC2`: the T/C is 88 % of control under setting [12], 90 % of control under setting [13] and 92 % of control under setting [14].
Regarding `COc1ccc(OC)c(C2N(C)CCCN2C)c1`, the T/C was 95 % of control (dose: 6.25 mg/kg/injection, schedule: Q01DX009 (ip), vehicle: saline sonified); 90 % of control (dose: 12.5 mg/kg/injection, schedule: Q01DX009 (ip), vehicle: saline sonified); 100 % of control (dose: 25.0 mg/kg/injection, schedule: Q01DX009 (ip), vehicle: saline sonified).
In the case of `NC(=O)C1=Cc2cc(Cl)ccc2OC1`, the T/C (dose: 6.25 mg/kg/injection, schedule: Q01DX009 (ip), vehicle: saline with Tween-80) was 97 % of control; the T/C (dose: 12.5 mg/kg/injection, schedule: Q01DX009 (ip), vehicle: saline with Tween-80) was 102 % of control; the T/C (dose: 25.0 mg/kg/injection, schedule: Q01DX009 (ip), vehicle: saline with Tween-80) was 92 % of control; the T/C under setting [7] was 106 % of control.
Turning to `CN(C)C1c2cc3ccccc3nc2-c2ccccc2C1(C)C` (stereo not given), the T/C (dose: 12.5 mg/kg/injection, schedule: Q01DX005 (ip), vehicle: saline with Tween-80) is 95 % of control; the T/C (dose: 25.0 mg/kg/injection, schedule: Q01DX005 (ip), vehicle: saline with Tween-80) was 95 % of control; the T/C under setting [9] is 100 % of control and 101 % of control; the T/C under setting [11] was 97 % of control.
With `O=C1CSc2nc3ccc(Cl)cc3c(=O)n21`, the T/C is 93 % of control under setting [9], 101 % of control under setting [10] and 104 % of control under setting [11].
For `COP(=O)(CI)OC`, the T/C reads like this: under setting [15], 102 % of control; (dose: 100.0 mg/kg/injection, schedule: Q01DX009 (ip), vehicle: saline) 99 % of control; (dose: 200.0 mg/kg/injection, schedule: Q01DX009 (ip), vehicle: saline) 107 % of control.
As to `CC1(C)COCN1COC1CCCCC1`, under setting [16], the T/C is 120 % of control.
`COc1ccccc1/C=C(\C(=O)O)c1ccccc1`: the T/C is 96 % of control under setting [12] and 91 % of control under setting [13].
Take `ClCCN(CCCl)c1ccc(/C=N/Nc2ccc3ccccc3n2)cc1`: the T/C reads like this: under setting [1], 110 % of control; under setting [2], 109 % of control; under setting [3], 106 % of control.
Turning to `ClC(Cl)(Cl)C1OCCOCCO1`, the T/C is, setting by setting: under setting [8], 109 % of control; (dose: 200.0 mg/kg/injection, schedule: Q01DX009 (ip), vehicle: saline with Tween-80) 100 % of control; (dose: 400.0 mg/kg/injection, schedule: Q01DX009 (ip), vehicle: saline with Tween-80) 116 % of control.
As to `CCS/C(SC)=C(/c1ccccc1)[P+](c1ccccc1)(c1ccccc1)c1ccccc1`, the T/C was 106 % of control (dose: 3.12 mg/kg/injection, schedule: Q01DX005 (ip), vehicle: Klucel (hydroxypropylcellulose) (HPC)) and 117 % of control (dose: 12.5 mg/kg/injection, schedule: Q01DX005 (ip), vehicle: Klucel (hydroxypropylcellulose) (HPC)).
`CCCCCCCCCCCCCCCC(=O)N(CCCCN(C(=O)CCCCCCCCCCCCCCC)C(C)CCCN(CC)CC)C(C)CCCN(CC)CC` (stereo not given): the T/C under setting [17] was 93 % of control and the T/C (dose: 50.0 mg/kg/injection, schedule: Q01DX009 (ip), vehicle: other) is 93 % of control.
For the molecule `O=C(c1ccccc1)N1C=CC(=Cc2ccccc2)C=C1`, the T/C (dose: 1.56 mg/kg/injection, schedule: Q01DX009 (ip), vehicle: Klucel (hydroxypropylcellulose) (HPC)) was 102 % of control; the T/C (dose: 3.12 mg/kg/injection, schedule: Q01DX009 (ip), vehicle: Klucel (hydroxypropylcellulose) (HPC)) is 106 % of control; the T/C (dose: 6.25 mg/kg/injection, schedule: Q01DX009 (ip), vehicle: Klucel (hydroxypropylcellulose) (HPC)) is 101 % of control and 96 % of control.
`CC1CCCC2C(c3ccccc3)OCN12` (stereo not given): the T/C (dose: 50.0 mg/kg/injection, schedule: Q01DX005 (ip), vehicle: saline) was 108 % of control; the T/C (dose: 100.0 mg/kg/injection, schedule: Q01DX005 (ip), vehicle: saline) was 111 % of control; the T/C (dose: 200.0 mg/kg/injection, schedule: Q01DX005 (ip), vehicle: saline) is 109 % of control.
As for `C[C@]12CCC(=O)C[C@@H]1CC[C@@H]1[C@@H]2CC[C@]2(C)[C@@H](OC(=O)N(CCCl)N=O)CC[C@@H]12`, the T/C (dose: 25.0 mg/kg/injection, schedule: Q01DX005 (ip), vehicle: other) is 105 % of control; the T/C under setting [17] is 120 % of control; the T/C under setting [16] is 106 % of control; the T/C (dose: 31.2 mg/kg/injection, schedule: Q04DX003 (ip), vehicle: saline) was 116 % of control; the T/C (dose: 50.0 mg/kg/injection, schedule: Q01DX005 (ip), vehicle: other) was 105 % of control; the T/C under setting [15] is 121 % of control. Further, the T/C is 110 % of control (dose: 62.5 mg/kg/injection, schedule: Q04DX003 (ip), vehicle: saline); 112 % of control (dose: 100.0 mg/kg/injection, schedule: Q01DX005 (ip), vehicle: other); 100 % of control (dose: 100.0 mg/kg/injection, schedule: Q01DX009 (ip), vehicle: other).
Turning to `Cn1c[n+](C)nn1`, the T/C was 91 % of control (dose: 12.5 mg/kg/injection, schedule: Q01DX009 (ip), vehicle: saline); 97 % of control under setting [16]; 97 % of control under setting [15].
Take `Cc1ccc(C2C=CC(C#N)=CN2Cc2ccccc2)cc1` (stereo not given): the T/C was 99 % of control under setting [12], 104 % of control under setting [13] and 101 % of control under setting [14].
For `CC(=O)O[C@@H]1C(C(=O)[C@@H](C)C(C)C)OCOC1C1CC(=O)NC(=O)C1` (stereo not given in full), the T/C reads like this: (dose: 0.01 mg/kg/injection, schedule: Q01DX009 (ip), vehicle: distilled water + alcohol) 100 % of control; (dose: 0.03 mg/kg/injection, schedule: Q01DX009 (ip), vehicle: distilled water + alcohol) 100 % of control; (dose: 0.06 mg/kg/injection, schedule: Q01DX009 (ip), vehicle: distilled water + alcohol) 93 % of control; (dose: 0.12 mg/kg/injection, schedule: Q01DX009 (ip), vehicle: distilled water + alcohol) 98 % of control.
